Assay results: publication PMC9671377, “Label-free affinity screening, design and synthesis of inhibitors targeting the Mycobacterium tuberculosis L-alanine dehydrogenase” (PLOS ONE, 2022)

Assays:
L225A AlaDH = L225A AlaDH (Mycobacterium tuberculosis, UniProt P9WQB1, L225A); format: biochemical
L249A AlaDH = L249A AlaDH (Mycobacterium tuberculosis, UniProt P9WQB1, L249A); format: biochemical

## CC(C)CNc1ncnc2c1ncn2[C@@H]1O[C@H](CO)[C@@H](O)[C@H]1O [N6-isobutyl adenosine]
L225A AlaDH
  vi of L225A AlaDH after adding compound: 0.821 x10^-3 [NADH]OD340/min
L249A AlaDH
  vi of L249A AlaDH after adding compound: 1.007 x10^-3 [NADH]OD340/min
